Experimental data: US7999001B2 (priority 2007, dated 2011)
“Also recorded” adds a separate entry of the source. Read-outs that look alike come from different tables or passages of the source.

How the values were obtained:
[1] = system: EBOV-GFP (recombinant Ebola Zaire virus expressing green fluorescence protein); assay: microbe, parasite or virus in culture; assay type: cell-based; settings: for inhibition at 20 µM: Zaire ebolavirus, Vero C1008, 48 h, read-out: EBOV % Inhibition (20 μM)
[2] = system: Lassa virus (Josiah strain); assay type: cell-based
[3] = system: EBOV-GFP; assay: microbe, parasite or virus in culture; assay type: cell-based, Ebola Zaire virus; settings: for IC50: Zaire ebolavirus, Vero C1008, read-out: IC50 (read from graphs of % of control infection)
[4] = system: Rift Valley Fever Virus (ZH501 strain); assay type: cell-based
[5] = system: influenza virus (H1N1 A/Texas strain); assay type: cell-based
[6] = system: MPXV-GFP (recombinant monkeypox virus expressing GFP, Zaire strain); assay: microbe, parasite or virus in culture; assay type: cell-based; settings: Vero C1008, in Primates, 48 h, read-out: Monkey Pox % Inhibition (20 μM)

| SMILES | inhibition at 20 µM [1] [%] | inhibition at 20 µM [6] [%] | further results |
| --- | --- | --- | --- |
| N=C(N)c1ccc2oc(/C=C/c3cc4ccc(C(=N)N)cc4o3)cc2c1 [NSC 294202, 2-[(E)-2-(5-carbamimidoylbenzofuran-2-yl)ethenyl]benzofuran-6-carboximidamide] | 71.2 |  | antiviral activity toward LV (Lassa virus) [2]: showed antiviral activity; dose dependent antiviral activity toward EBOV-GFP [3]: dose dependent antiviral activity; IC50 [3]: ~6 µM; antiviral activity toward RVFV [4]: showed antiviral activity; antiviral activity toward influenza virus [5]: showed antiviral activity; inhibition of influenza virus replication [5]: more than one log; also recorded: inhibit the replication |
| C(=C\c1cc2cc(C3=NCCN3)ccc2o1)/c1ccc(C2=NCCN2)cc1 [NSC 308570, 2-[2-[(E)-2-[4-(4,5-dihydro-1H-imidazol-2-yl)phenyl]ethenyl]benzofuran-5-yl]-4,5-dihydro-1H-imidazole] | 30.7 |  |  |
| Cc1c2ccncc2c(C)c2c1[nH]c1ccc(O)cc12 [NSC 264136, 5,11-dimethyl-6H-pyrido[4,3-b]carbazol-9-ol] | 63.1 |  |  |
| N=C(N)c1ccc(-c2nc3ccc(C(=N)N)cc3[nH]2)cc1 [NSC 240894, 2-(4-carbamimidoylphenyl)-3H-benzoimidazole-5-carboximidamide] |  | 89.7 |  |
| N=C(N)c1ccc2c(c1)=NC(=C(N)N)C=2 [NSC 330689, 2-(diaminomethylidene)indole-6-carboximidamide] |  | 89.9 |  |
| N=C(N)c1ccc2[nH]c(/C=C/c3cc4cc(C(=N)N)ccc4o3)cc2c1 [NSC 290107, 2-[(E)-2-(5-carbamimidoylbenzofuran-2-yl)ethenyl]-1H-indole-5-carboximidamide] | 33.6 |  |  |
| Nc1ccc(-c2cc3ccc(C4=NCCN4)cc3[nH]2)cc1 [NSC 369715, 4-(6-(4,5-dihydro-1H-imidazol-2-yl)-1H-indol-2-yl)phenylamine] | 56.8 |  |  |
| N=C(N)c1ccc(/C=C/C=C/c2cc3cc(C(=N)N)ccc3o2)cc1 [NSC 308572, 2-[(1E,3E)-4-(4-carbamimidoylphenyl)buta-1,3-dienyl]benzofuran-5-carboximidamide] | 32.8 |  |  |
| N=C(N)c1ccc2oc(/C=C/C=C/c3cc4cc(C(=N)N)ccc4o3)cc2c1 [NSC 300511, 2-[(1E,3E)-4-(5-carbamimidoylbenzofuran-2-yl)buta-1,3-dienyl]benzofuran-5-carboximidamide] | 49.2 |  |  |
| N=C(N)c1ccc(Oc2ccc(-c3cc4ccc(C(=N)N)cc4[nH]3)cc2)cc1 [NSC 240898, 2-[4-(4-carbamimidoylphenoxy)phenyl]-1H-indole-6-carboximidamide] |  | 98.1 |  |
| N=C(N)c1ccc(-c2ccc(-c3ccc(C(=N)N)cc3)s2)cc1 [NSC 300510, 4-[5-(4-carbamimidoylphenyl)thiophen-2-yl]benzenecarboximidamide] | 59.7 | 89.9 | dose dependent antiviral activity toward EBOV-GFP [3]: dose dependent antiviral activity |
| c1cc(-c2cc3ccc(C4=NCCN4)cc3[nH]2)ccc1C1=NCCN1 [NSC 278995, 6-(4,5-dihydro-1H-imidazol-2-yl)-2-[4-(4,5-dihydro-1H-imidazol-2-yl)phenyl]-1H-indole] |  | 99.3 |  |
| CC(=O)NC1=C(Sc2ccc(Cl)cc2)C(=O)c2ccccc2C1=O [NSC 128981, N-(3-((4-chlorophenyl)thio)-1,4-dioxo-1,4-dihydro-2-naphthalenyl)acetamide] | 97.7 |  | IC50 [3]: ~15 µM |
| O=C1C(SCCO)=C(SCCO)C(=O)c2ccccc21 [NSC 95397, 2,3-bis((2-hydroxyethyl)thio)naphthoquinone] |  |  | EBOV % Inhibition (20 μM) [1]: 75.3% |
| C(=C\c1cc2cc(C3=NCCN3)ccc2o1)/c1cc2cc(C3=NCCN3)ccc2[nH]1 [NSC 290108, 5-(4,5-dihydro-1H-imidazol-2-yl)-2-[(E)-2-[5-(4,5-dihydro-1H-imidazol-2-yl)benzofuran-2-yl]ethenyl]-1H-indole] | 45 | 45.1 |  |
| CCN(CC)CCCNc1nc(C)cc(Nc2ccc3nc(C)cc(N)c3c2)n1 [NSC 23767, N^6-(2-((3-(diethylamino)propyl)amino)-6-methyl-4-pyrimidinyl)-2-methyl-4,6-quinolinediamine] | 74.1 |  |  |
| O=C(Nc1ccc(C2=NCCN2)cc1)c1cc2ccc(C3=NCCN3)cc2o1 [NSC 294208, 6-(4,5-dihydro-1H-imidazol-2-yl)-N-[4-(4,5-dihydro-1H-imidazol-2-yl)phenyl]benzofuran-2-carboxamide] | 38.8 |  |  |

| SMILES | inhibition at 20 µM [1] [%] | inhibition at 20 µM [6] [%] | further results |
| --- | --- | --- | --- |
| NC(N)=NN=Cc1ccc2cc(-c3ccc(/C=N/N=C(N)N)cc3)sc2c1 [NSC 341909, 2-[[2-[4-[(E)-(diaminomethylidenehydrazinylidene)methyl]phenyl]benzothiophen-6-yl]methylideneamino]guanidine] | 57.5 | 95.8 |  |
| N=C(N)c1ccc(-c2cc3ccc(C(=N)N)cc3s2)cc1 [NSC 240890, 2-(4-carbamimidoylphenyl)benzothiophene-6-carboximidamide; 2-hydroxypropanoic acid] | 54.9 | 46.7 |  |
| N=C(N)c1ccc2oc(/C=C/c3cc4cc(C(=N)N)ccc4s3)cc2c1 [NSC 266472, 2-[(E)-2-(5-carbamimidoylbenzothiophen-2-yl)ethenyl]benzofuran-5-carboximidamide] | 67.5 |  |  |
| C(=C\c1cc2cc(C3=NCCN3)ccc2o1)/c1cc2cc(C3=NCCN3)ccc2o1 [NSC 278999, 2-[2-[(E)-2-[5-(4,5-dihydro-1H-imidazol-2-yl)benzofuran-2-yl]ethenyl]benzofuran-5-yl]-4,5-dihydro-1H-imidazole] | 55.6 |  |  |
| N=C(N)c1ccc2cc(/C=C/c3cc4ccc(C(=N)N)cc4o3)oc2c1 [NSC 294199, 2-[(E)-2-(6-carbamimidoylbenzofuran-2-yl)ethenyl]benzofuran-6-carboximidamide] | 68.8 | 40.9 |  |
| C(/C=C/c1cc2cc(C3=NCCN3)ccc2o1)=C\c1ccc(C2=NCCN2)cc1 [NSC 308573, 2-[2-[(1E,3E)-4-[4-(4,5-dihydro-1H-imidazol-2-yl)phenyl]buta-1,3-dienyl]benzofuran-5-yl]-4,5-dihydro-1H-imidazole] | 54.2 |  |  |
| c1cc(-c2cc3cc(C4=NCCN4)ccc3s2)ccc1C1=NCCN1 [NSC 308569, 2-[2-[4-(4,5-dihydro-1H-imidazol-2-yl)phenyl]benzothiophen-5-yl]-4,5-dihydro-1H-imidazole] | 35.3 | 95.8 |  |
| N=C(N)c1ccc(-c2cc(-c3ccc(C(=N)N)cc3)on2)cc1 [NSC 240900, 4-[3-(4-carbamimidoylphenyl)oxazol-5-yl]benzenecarboximidamide] |  | 79.9 |  |
| c1cc2cc(-c3cc4ccc(C5=NCCN5)cc4[nH]3)[nH]c2cc1C1=NCCN1 [NSC 330688, 6-(4,5-dihydro-1H-imidazol-2-yl)-2-[6-(4,5-dihydro-1H-imidazol-2-yl)-1H-indol-2-yl]-1H-indole] | 51.3 | 84.9 |  |
| N=C(N)c1ccc(-n2cc3cc(C(=N)N)ccc3n2)cc1 [NSC 240895, 2-(4-carbamimidoylphenyl)indazole-5-carboximidamide] | 32.2 | 99.7 |  |
| N=C(N)c1ccc(-c2[nH]c3cc(C(=N)N)ccc3c2N)cc1 [NSC 300509, 3-amino-2-(4-carbamimidoylphenyl)-1H-indole-6-carboximidamide] |  | 84.9 |  |
| C(/C=C/c1cc2cc(C3=NCCN3)ccc2o1)=C\c1cc2cc(C3=NCCN3)ccc2o1 [NSC 308571, 2-[2-[(1E,3E)-4-[5-(4,5-dihydro-1H-imidazol-2-yl)benzofuran-2-yl]buta-1,3-dienyl]benzofuran-5-yl]-4,5-dihydro-1H-imidazole] | 61.2 |  |  |
| O=C(Nc1ccc(C2=NCCN2)cc1)c1cc2cc(C3=NCCN3)ccc2o1 [NSC 290111, 5-(4,5-dihydro-1H-imidazol-2-yl)-N-[4-(4,5-dihydro-1H-imidazol-2-yl)phenyl]benzofuran-2-carboxamide] | 40 |  |  |
| N=C(N)c1ccc(-c2cc3cc(C(=N)N)ccc3s2)cc1 [NSC 240891, 2-(4-carbamimidoylphenyl)benzothiophene-5-carboximidamide] | 40.3 | 99.4 |  |
| c1cc(-c2[nH]c3cc(C4=NCCN4)ccc3c2-c2cc3ccc(C4=NCCN4)cc3[nH]2)ccc1C1=NCCN1 [NSC 352341, 6-(4,5-dihydro-1H-imidazol-2-yl)-3-[6-(4,5-dihydro-1H imidazol-2-yl)-1H-indol-2-yl]-2-[4-(4,5-dihydro-1H-imidazol-2-yl)phenyl]-1H-indole] |  |  | EBOV % Inhibition (20 μM) ([1]; 20 µM): 41.2% |
| c1cc(-c2[nH]c3cc(C4=NCCN4)ccc3c2-c2cc3ccc(C4=NCCN4)cc3[nH]2)ccc1C1=NCCN1 [NSC 341911, 6-(4,5-dihydro-1H-imidazol-2-yl)-3-[6-(4,5-dihydro-1H-imidazol-2-yl)-1H-indol-2-yl]-2-[4-(4,5-dihydro-1H-imidazol-2-yl)phenyl]-1H-indole] | 33.2 |  |  |
| O=C(Nc1ccc(C2=NCCN2)cc1)c1cc2ccc(C3=NCCN3)cc2[nH]1 [NSC 294206, 6-(4,5-dihydro-1H-imidazol-2-yl)-N-[4-(4,5-dihydro-1H-imidazol-2-yl)phenyl]-1H-indole-2-carboxamide] | 61.5 | 86 | dose dependent antiviral activity toward EBOV-GFP [3]: dose dependent antiviral activity |
